This passage reports IC50 results from article PMC8494682 (Applied Microbiology and Biotechnology, 2021).

Where two headings read alike, the source gives them in different places.

For experiment [1], the target named is T1, pantothenate kinase (PanK, Cab1) (Saccharomyces cerevisiae, UniProt Q04430).
T1 construct: wild-type Cab1 expressed from pSBS5 in yeast strain JS91.14-24, partially purified on DEAE sepharose
T1 sequence (Q04430 1-367): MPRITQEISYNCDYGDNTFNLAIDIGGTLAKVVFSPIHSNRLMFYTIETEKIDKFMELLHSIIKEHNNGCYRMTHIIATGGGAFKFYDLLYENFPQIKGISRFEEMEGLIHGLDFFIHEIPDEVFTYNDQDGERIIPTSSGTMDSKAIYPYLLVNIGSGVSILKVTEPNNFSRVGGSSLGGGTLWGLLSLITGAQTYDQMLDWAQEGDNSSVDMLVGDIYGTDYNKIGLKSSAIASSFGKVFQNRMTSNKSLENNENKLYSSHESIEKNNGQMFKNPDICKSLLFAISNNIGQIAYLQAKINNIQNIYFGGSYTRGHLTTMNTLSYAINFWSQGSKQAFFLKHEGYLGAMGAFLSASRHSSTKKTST
Briefly: radiometric PanK assay with D-[[…]-14C]pantothenate, partially purified enzyme. In kind it is biochemical.

For experiment [2], the target named is T2, pantothenate kinase PanK3 (murine) (Mus musculus, UniProt Q8R2W9).
T2 construct: murine wild-type PanK3 expressed from pJO73 in yeast strain JS91.14-24, partially purified on DEAE sepharose
T2 sequence (Q8R2W9 1-370): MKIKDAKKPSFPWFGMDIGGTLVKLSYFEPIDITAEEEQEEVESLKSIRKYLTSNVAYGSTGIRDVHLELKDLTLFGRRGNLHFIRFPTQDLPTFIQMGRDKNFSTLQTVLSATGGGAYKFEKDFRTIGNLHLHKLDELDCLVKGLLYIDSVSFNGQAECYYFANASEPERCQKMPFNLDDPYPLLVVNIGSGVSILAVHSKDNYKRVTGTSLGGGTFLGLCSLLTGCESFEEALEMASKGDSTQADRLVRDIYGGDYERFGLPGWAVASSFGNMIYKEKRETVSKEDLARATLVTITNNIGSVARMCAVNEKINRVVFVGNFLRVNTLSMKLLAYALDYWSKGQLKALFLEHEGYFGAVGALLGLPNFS
The experiment is described as above. Format: biochemical.

Broadly, the IC50 is the concentration that gives 50% inhibition. As for `CC(C)(COP(=O)(O)OP(=O)(O)OC[C@H]1O[C@@H](n2cnc3c(N)ncnc32)[C@H](O)[C@@H]1OP(=O)(O)O)[C@@H](O)C(=O)NCCC(=O)NCCS` [Coenzyme A], in experiment [1] (read-out: IC50), the IC50 came to 283 µM.

Consider `CC(=O)SCCNC(=O)CCNC(=O)[C@H](O)C(C)(C)COP(=O)(O)OP(=O)(O)OC[C@H]1O[C@@H](n2cnc3c(N)ncnc32)[C@H](O)[C@@H]1OP(=O)(O)O` [acetyl-CoA], for which the IC50 came to 36 µM in experiment [1] and 1 µM in experiment [2].

Regarding `CC(C)(COP(=O)(O)OP(=O)(O)OC[C@H]1O[C@@H](n2cnc3c(N)ncnc32)[C@H](O)[C@@H]1OP(=O)(O)O)[C@@H](O)C(=O)NCCC(=O)NCCSC(=O)CC(=O)O` [malonyl-CoA], in experiment [1], the IC50 came out at 812 µM.

Consider `CCCCCCCCCCCCCCCC(=O)SCCNC(=O)CCNC(=O)[C@H](O)C(C)(C)COP(=O)(O)OP(=O)(O)OC[C@H]1O[C@@H](n2cnc3c(N)ncnc32)[C@H](O)[C@@H]1OP(=O)(O)O` [palmitoyl-CoA], for which the IC50 in experiment [1] (read-out: IC50) turned out to be 891 µM.
